# Key:
# [1] = target: T1, 20S proteasome (trypsin-like activity) (Homo sapiens, UniProt Q99436); assay: Proteasome Glo Trypsin-Like Activity Assay; format: biochemical; settings: 10 and 1 µM, in vitro
# T1 construct: purchased Enzo Life Sciences
# Description: The inhibition of proteasomes was assessed using the Proteasome Glo Trypsin-Like Activity Assay from Promega according to the manufacturer’s instructions. Briefly, in white 96-well plates, kempopeptin C (3) (10 and 1 µM final concentration) was incubated at room temperature with 0.1 µg 20S proteasome (Enzo Life Sciences, Farmingdale, NY, USA) for 10 min to allow enzyme inhibitor interactions. Following the incubation period, the detection reagent containing Z-LRR-aminoluciferin substrate was added. The plate was gently mixed at 400 rpm for 30 s and then incubated at room temperature for 10 min. The luminescence signal was then measured using the EnVision plate reader (PerkinElmer, Waltham, MA, USA). Epoxomicin was used as a positive control.
# Effect of kempopeptin C on the trypsin- like activity of
# Kempopeptin C (10 µM) Kempopeptin C (1 µM) Epoxomicin (5 µM)
# Figure S2. Effect of kempopeptin C (3) on the proteasome activity in vitro assessed using proteasome Glo trypsin- like
# activity assay (Promega).
# [2] = system: CDCP1 cleavage in MDA-MB-231 cells; assay: Cleavage of cellular CDCP1 in MDA-MB-231 supplemented with exogenous recombinant human matriptase; format: cell-based; settings: MDA-MB-231 + 10 nM recombinant human matriptase, 24 h, different concentrations
# Description: (§1) Figure 6 The effect of kempopeptins B and C (2 and 3) on CDCP1 cleavage in MDA-MB-231. (A) MDA-MB-231 cells were treated for 72 h with different concentrations of the test compounds. Following 72 h, the lysates were collected and analyzed by Western blot. (B) MDA-MB-231 cells were treated at different time points with 100 µM of kempopeptin C (3). Following 6 h, 12 h and 24 h, the lysates were collected and analyzed by Western blot. Dexamethasone (Dex) was used as a positive control. (C) MDA-MB-231 cells treated for 24 h with different concentrations of 3 in the presence of 10 nM recombinant human matriptase. Cell lysates were harvested and analyzed by Western blot. (D) Densitometric analysis of the full-length, LMW of CDCP1 and actin bands in (C).
# In this experiment, we aimed to investigate the ability of 3 to inhibit cell-expressed CDCP1 rather than the purified recombinant protein in vitro. In contrast to the well-controlled in vitro assay, several factors might influence the extracellular matriptase activity in the cell-based assay; for example, the occurrence of additional secreted cellular factors, differences in pH, in addition to the unknown enzyme:substrate:inhibitor ratio. […] Additionally, matriptase is one of at least two other proteases known to process CDCP1, where plasmin is the main protease cleaving CDCP1 in MDA-MB-231 cells. […]
# [3] = Cell viability assay (MTT); format: cell-based; settings: human, MDA-MB-231 breast cancer cells; MDA-MB-231, 48 h, all concentrations tested (32 µM to 320 pM)
# Description: MDA-MB-231 cells were seeded in 96-well plates (10,000 cells/well). After 24 h of incubation, the cells were treated with different concentrations of kempopeptins B or C (2 or 3) or the solvent control (DMSO). Following 48 h of incubation, cell viability was measured using 3-(4,5-dimethylthiazol-2-yl)-2,5-diphenyltetrazolium bromide according to the manufacturer's instructions (Promega, Madison, WI, USA).
# Effect of kempopeptins on the viability of MDA-MB-231 cells
# Kempopeptin C Kempopeptin B
# Figure S1. Effect of kempopeptins B and C (2) and (3) on the viability of MDA -MB-231 breast cancer cells.
# [4] = system: CDCP1 cleavage in MDA-MB-231 cells; assay: Cleavage of CDCP1 in MDA-MB-231 cells (Western blot); format: cell-based
# Description: The experiment was performed by treating MDA-MB-231 cells with different concentrations of either kempopeptin B (2) or C (3) for 72 h (Figure 6A). Dexamethasone (Dex) 100 nM was used as a positive control.
# as §1
# MDA-MB-231 cells (150,000 cells/well) were seeded in 12-well plates. After 24 h, the media were replaced, and cells were treated with different concentrations of inhibitors (2 or 3; prepared in DMSO), the solvent control or the positive control dexamethasone. Whole-cell protein lysates were collected after 6, 12, 24 and 72 h using PhosphoSafe lysis buffer (Novagen, Madison, USA) and the protein concentration measured using the BCA Protein Assay kit (Pierce; 23227; Thermofisher Scientific; Waltham, MA, USA). Twenty micrograms of protein were separated by SDS-PAGE, transferred to polyvinylidene difluoride (PVDF) membranes, probed with CDCP1 antibody (Cell Signaling; 4115S) and detected with SuperSignal West Femto Maximum Sensitivity Substrate (Pierce).
# [5] = target: T2, trypsin from porcine pancreas (Sus scrofa, UniProt P00761); assay: Trypsin inhibition assay; format: biochemical; settings: mean ± SD, n = 3; 30-min preincubation; read-out: IC50 against trypsin
# T2 construct: purchased Sigma T0303; host or cells: porcine pancreas
# T2 sequence (P00761 9-231): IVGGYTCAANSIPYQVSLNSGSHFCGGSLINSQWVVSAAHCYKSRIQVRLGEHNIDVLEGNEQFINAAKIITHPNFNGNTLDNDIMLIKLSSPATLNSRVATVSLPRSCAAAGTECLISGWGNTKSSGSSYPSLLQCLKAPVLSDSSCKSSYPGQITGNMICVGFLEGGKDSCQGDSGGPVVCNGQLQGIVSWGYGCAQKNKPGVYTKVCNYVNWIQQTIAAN
# Description: The trypsin inhibition assay was carried out at room temperature by incubating 10 µL of trypsin from porcine pancreas (T0303, Sigma, St. Louis, MO, USA) (100 µM prepared in assay buffer) with 39 µL of assay buffer (50 mM Tris-HCl, 100 mM NaCl, 1 mM CaCl2; pH 7.8) in the presence of 1 µL of different concentrations of inhibitors (2 and 3; half log dilutions prepared in DMSO) or the solvent control. After a 30-min incubation time, 50 µL of the 1.5 mM substrate: Nα-benzoyl-DL-arginine-4-nitroanilide (prepared as 2 mM stock solution in DMF and further diluted to 1.5 mM in assay buffer) were added to each well. The reaction was monitored by measuring the absorbance at 405 nm every 30 s for 30 min using SpectraMax M5 plate reader (Molecular Devices, Sunnyvale, CA, USA).
smiles,measurement,setting,value
"CCCC(=O)NC(C(=O)NC1C(=O)NC(CCCCN)C(=O)NC2CCC(O)N(C2=O)C(C(C)CC)C(=O)N(C)C(Cc2ccc(OC)c(Cl)c2)C(=O)NC(C(C)C)C(=O)OC1C)C(C)C (stereo not shown) [Kempopeptin C, kempopeptin C]",Effect on trypsin-like activity of proteasomes,[1],did not inhibit the trypsin-like activity of proteasomes
same,Reduction of cleavage of cellular CDCP1 in presence of exogenous matriptase,[2],reduced the cleavage of CDCP1
same,Reduction of cleavage of cellular CDCP1 in presence of exogenous matriptase,[2]; listed as Kempopeptin C (3),slight dose-dependent reduction in the cleavage of the full-length form
same,viability at 48 h,[3],> 90%
same,Inhibition of CDCP1 cleavage in MDA-MB-231,"[4]; 100 µM, 6, 12 and 24 h",no inhibition of CDCP1 cleavage was detected
same,Inhibition of CDCP1 cleavage in MDA-MB-231,"[4]; 72 h, different concentrations",No inhibition of CDCP1 cleavage was observed
same,IC50,[5],190 ± 50 nM
